Data set [1] deals with zebrafish embryos. As to the kind of experiment: Automated angiogenesis assay (ISV formation), Flk1:copGFP embryos treated at 22-26 hpf, read at 48 hpf. The class given is in vivo. To be noted: for Efective concentration (minimum concentration that showed an effect): given when IC50 could not be calculated; for Angiog. inhibition: presence or absence of an anti-angiogenic effect, 0.01-100 µM; for Anti-angiogenic phenotype (ISVs / DLAV): treated at 24 hpf, checked at 48 hpf.
From the text: In the angiogenesis assay, the fluorescent images taken were processed using AxioVision 4.6.3 and a macro was developed to quantify an indirect measure of the area of the ISVs. […] However, we usually include a manual counting to offer a more detailed measurement of effect.
In the automatic analysis of angiogenesis, it is first necessary to perform a sequence of automated filtering functions on the image to extract information, define the region of interest (ROI), that in this case is the part of the tail containing the ISVs, and allow the measurement of the embryo length. Recovering a previous image, new filtering functions are applied to the ROI. A gradient image containing the ISVs, the DLAV (Dorsal Longitudinal Anastomotic Vessel), the PCV and the DA is created. Next, fluorescent areas that should not be quantified are discarded. Finally, only the areas comprised between the ISVs, the DLAV and the PCV or the DA are measured (Figure 4). In that way, when the vessels are incomplete or the DLAV is not present, an enclosed area is not present and therefore not measured.
The means obtained from the treated embryos were compared with the control mean. When statistically significant differences were detected a deeper analysis was done manually. In this case the parameters quantified were:
• The total number of ISVs present in the trunk of the embryos (from where the largest bulge of the yolk ends to the end of the tail). • Number of complete ISVs (reached the dorsal part of the embryo and formed the DLAV).
A curve of six concentrations (0.01, 0.1, 1, 10, 30 and 100 µM) was performed for all of them. […] IC50 was calculated when a clear dose-dependent anti-angiogenesis effect was detected. Otherwise, the minimum dose at which the inhibition of angiogenesis was observed is shown (Table 4).
At this time, chorions were removed with protease from Streptomyces griseus (Sigma-Aldrich) (1.5 mg/ml for 6 minutes) and the embryos were sorted and dispensed 1 per well in a 96 well assay plate. Each experimental condition was tested in a row with ten embryos. Embryos were dispensed in an average final volume of 90 µl of E3 media. 90 µl of the test items (DMSO and positive control KRN633 included) previously diluted 100 times were dispensed into each well of the assay plate containing the embryos to get the final volume of 180 µl and the desired final concentration.
The microscope scanned the wells by columns and a bright field image and a fluorescent image (2.5×magnification) were acquired per well. Then, the image analysis was performed and the result file generated.
Statistical analysis and graphical representation of the data were performed using SSPS (Statistical Package for the Social Sciences) software and Prism (Graph Pad Software) for IC50 calculations (non linear regression, sigmoidal dose-response with variable slope). […] In the angiogenesis assay, for comparisons between two groups, two-tailed t-test was used assuming unequal variances. For comparisons between more than two groups one-way analysis of variance followed by Dunnett’s post-test was applied to compare each data point with vehicle control.

Data set [2] relates to zebrafish embryos. The experiment in a line: Embryo analysis at 72 hpf (blood circulation and ISVs development). The class given is in vivo. To be noted: for Blood circulation / ISVs appearance: 72 hpf. The procedure:
Embryos from the Flk1:copGFP line were treated with the indicated compounds at 22–23 hpf in 500 µl of E3 in p24 well plates (5 embryos per well). After 48 hours of treatment embryos were anesthetized with 10 µl Tricaine (final concentration 0.02%) and analyzed for the presence of blood circulation and ISVs development using a Leica M205 FA stereoscope equipped with a Hamamatsu C10600 camera.

Data set [3] in a line: Dilution of compound in E3 medium. The class given is physicochemical.

Entries after “also recorded” stand apart in the source; their conditions may differ.

Take `COc1cc(Nc2c(C#N)cnc3cc(OCCCN4CCN(C)CC4)c(OC)cc23)c(Cl)cc1Cl` [Bosutinib]: in the data set on zebrafish embryos [1], the “Efective concentration (minimum concentration that showed an effect)” value (“Efective concentration” below) was 50 µM, the Angiog. inhibition result was “Yes” and the “Anti-angiogenic phenotype (ISVs / DLAV)” value was “moderate effect that did not increase with higher doses”. Further, in the data set on zebrafish embryos [2], the Blood circulation result is on record as “impaired blood circulation” and the ISVs appearance entry is reported as “thinner ISVs that were disrupted in some cases”.

In the case of `CS(=O)(=O)Nc1ccc([N+](=O)[O-])cc1OC1CCCCC1` [NS-398], in the data set with zebrafish embryos [1], the “Efective concentration” value is 30 µM, the Angiog. inhibition entry is “Yes” and the “Anti-angiogenic phenotype (ISVs / DLAV)” value is listed as “moderate effect that did not increase with higher doses”. In the data set on zebrafish embryos [2] (treatment to 72 hpf at the 48 hpf doses which inhibited angiogenesis), the Lethality entry is listed as “lethal”.

As to `Cn1c(=O)n(-c2ccc(C(C)(C)C#N)cc2)c2c3cc(-c4cnc5ccccc5c4)ccc3ncc21` [NVP-BEZ235], in the data set on zebrafish embryos [1], the “Efective concentration” value was 10 µM, the Angiog. inhibition entry is “Yes” and the “Anti-angiogenic phenotype (ISVs / DLAV)” value is recorded as “moderate effect that did not increase with higher doses”. Further, in the data set with zebrafish embryos [2], the Blood circulation result is on record as “impaired blood circulation” and the ISVs appearance result is listed as “thinner ISVs that were disrupted in some cases”.

With `CCN(CC)CCCCNc1ncc2cc(-c3cc(OC)cc(OC)c3)c(NC(=O)NC(C)(C)C)nc2n1` [PD173074], in the data set on zebrafish embryos [1], the “Efective concentration” value is listed as 100 µM, the Angiog. inhibition result was “Yes” and the “Anti-angiogenic phenotype (ISVs / DLAV)” value was “moderate effect that did not increase with higher doses; also recorded: inhibit proper development of the DLAV; also recorded: thinner ISVs rather than incomplete vessel formation”. In addition, in the data set on zebrafish embryos [2], the Blood circulation entry was “impaired blood circulation” and the ISVs appearance entry is “thinner ISVs that were disrupted in some cases”.

Turning to `CC(=O)O[C@H]1C(=O)[C@@]2(C)[C@H]([C@H](OC(=O)c3ccccc3)[C@]3(O)C[C@H](OC(=O)[C@H](O)[C@@H](NC(=O)c4ccccc4)c4ccccc4)C(C)=C1C3(C)C)[C@]1(OC(C)=O)CO[C@@H]1C[C@@H]2O` [Paclitaxel], in the data set with zebrafish embryos [1] (10 µM in E3 medium), the “Inhibition of angiogenesis at maximum dose tested in medium” value is on record as “not enough to induce inhibition of angiogenesis”. Besides, in the data set with zebrafish embryos [1], the Angiog. inhibition entry is on record as “Yes” and the “Anti-angiogenic phenotype (ISVs / DLAV)” value is “the formation of ISVs was perturbed with defective or total absence of sprouting”. Besides, the “Behaviour after dilution in E3 medium” value in data set [3] is reported as “precipitated”.

The values above are taken from article PMC3352927, “Development and Validation of an Automated High-Throughput System for Zebrafish In Vivo Screenings” (PLoS ONE, 2012).
